Assay results reported in ChEMBL document CHEMBL1131966, “On topography and functionality in the B-D rings of cephalostatin cytotoxins” (Bioorg Med Chem Lett, 1999).

Columns and labels:
P388 = assay: In vitro cytotoxicity against P388 leukemic cell line following a 6 day exposure.; format: functional, cell-based; conditions: Mus musculus, P388, 144 h
A549 = assay: In vitro cytotoxicity against Lung A-549 human tumors following a 2 day exposure.; format: functional; conditions: A549, 48 h
A498 = assay: In vitro cytotoxicity against Renal A-498 human tumors following a 2 day exposure.; format: functional; conditions: A498, 48 h
SF-295 = assay: In vitro cytotoxicity against CNS SF-295 human tumors following a 2 day exposure.; format: functional; conditions: SF-295, 48 h
HT-29 [1] = assay: In vitro cytotoxicity against Colon HT-29 human tumors following a 6 day exposure.; format: functional; conditions: HT-29, 144 h, read-out: ED50 (the source's name)
HL-60 = assay: In vitro cytotoxicity against HL-60 leukemia human tumors following a 2 day exposure.; format: functional; conditions: HL-60, 48 h
HT-29 [2] = assay: In vitro cytotoxicity against Colon HT-29 human tumors following a 2 day exposure.; format: functional; conditions: HT-29, 48 h
Homo sapiens [3] = species: Homo sapiens; assay: In vitro cytotoxicity against Breast avg 1-3 types of human tumors following a 6 day exposure.; format: functional; conditions: 144 h, read-out: ED50 (the source's name)
IGROV-1 = assay: In vitro cytotoxicity against Ovary IGROVIg OVI human tumors following a 2 day exposure.; format: functional; conditions: IGROV-1, 48 h
LOX IMVI = assay: In vitro cytotoxicity against Skin LOX IMVI human tumors following a 2 day exposure.; format: functional; conditions: 48 h
MCF7 = assay: In vitro cytotoxicity against Breast MCF-7 human tumors following a 2 day exposure.; format: functional; conditions: 48 h
[4] = tested on: Panel NCI-60 (60 carcinoma cell lines); assay: In vitro cytotoxicity against a subset of 60 cell lines (NCI-60) in human tumors following a 2 day exposure. Values in parentheses is the % cell lines affected.; format: functional; conditions: 48 h
NCI [5] = assay: In vitro cytotoxicity against a subset of 10 cell lines (NCI-10) in human tumors following a 2 day exposure. Values in parentheses is the % cell lines affected.; format: functional; conditions: 48 h
PC-3 [6] = assay: In vitro cytotoxicity against prostate PC-3 human tumors following a 2 day exposure.; format: functional; conditions: PC-3, 48 h
RXF 393 = assay: In vitro cytotoxicity against Renal RXF-393 human tumors following a 2 day exposure.; format: functional; conditions: RXF 393, 48 h
Homo sapiens [7] = species: Homo sapiens; assay: In vitro cytotoxicity against various human tumors (6-8 lines) as determined in the Purdue cell culture laboratory, following a 6 day exposure; format: functional; conditions: 144 h, read-out: ED50 (the source's name)
[8] = (§1) In vitro cytotoxicity against […] PACA-2 human tumors following a 6 day exposure; format: functional; conditions: PaCa-2, 144 h, read-out: ED50 (the source's name)
PC-3 [9] = assay: In vitro cytotoxicity against prostate PC-3 human tumors following a 6 day exposure; format: functional; conditions: PC-3, 144 h, read-out: ED50 (the source's name)
NCI [10] = assay: In vitro cytotoxicity against a subset of 10 cell lines (NCI-10) in human tumors following a 2 day exposure; ND is no data; format: functional; conditions: 48 h
MIA PaCa-2 = assay: as §1; format: functional; conditions: MIA PaCa-2, 144 h, read-out: ED50 (the source's name)

Compound	IC50 (P388) [nM]	GI50 (A549) [nM]	GI50 (A498) [nM]	GI50 (SF-295) [nM]	EC50 (HT-29 [1]) [nM]	GI50 (HL-60) [nM]	GI50 (HT-29 [2]) [nM]	EC50 (Homo sapiens [3]) [nM]	GI50 (IGROV-1) [nM]	GI50 (LOX IMVI) [nM]	GI50 (MCF7) [nM]	GI50 [4] [nM]	GI50 (NCI [5]) [nM]	GI50 (PC-3 [6]) [nM]	GI50 (RXF 393) [nM]	EC50 (Homo sapiens [7]) [nM]	EC50 [8] [nM]	EC50 (PC-3 [9]) [nM]	GI50 (NCI [10]) [nM]	EC50 (MIA PaCa-2) [nM]
CC(=O)O[C@H]1CC2Cc3nc4c(nc3C[C@]2(C)C2C[C@@H](O)[C@@]3(C)C(=CC5O[C@]6(CC[C@](C)(O)CO6)[C@@H](C)C53O)C21)CC1CCC2C(C[C@@H](O)[C@@]3(C)C2CC2OC5(CCC(C)(C)O5)[C@@H](C)C23)[C@@]1(C)C4 (some centres undefined)	96	–	–	–	–	–	–	–	–	–	–	–	–	–	–	–	–	–	–	–
C[C@H]1C2C(CC3C4CCC5Cc6nc7c(nc6C[C@]5(C)C4CC(=O)[C@@]32C)CC2CC(=O)C3C4=CC5O[C@]6(CC[C@](C)(O)CO6)[C@@H](C)C5(O)[C@@]4(C)[C@H](O)CC3[C@@]2(C)C7)OC12CCC(C)(C)O2 (some centres undefined)	19	–	–	–	–	–	–	–	–	–	–	–	–	–	–	–	–	–	–	–
CC1C2(O)C(C=C3C4CCC5Cc6nc7c(nc6C[C@]5(C)C4C[C@@H](O)[C@@]32C)CC2CCC3C4=CC5OC6(CCC(C)(C)O6)[C@@H](C)C5[C@@]4(C)[C@H](O)CC3[C@@]2(C)C7)O[C@]12CC[C@](C)(O)CO2 (some centres undefined)	–	76	0.55	1.2	0.012	1.2	> 650	0.036	> 1000	12	37	> 34	4.2	12	0.55	–	–	–	–	–
C[C@@H]1C2(OC3C=C4C5CCC6Cc7nc8c(nc7C[C@]6(C)C5C[C@@H](O)[C@]4(C)C31O)CC1CCC3C4=CCC5[C@H](C)[C@@]6(OC[C@]45[C@H](O)CC3[C@@]1(C)C8)OC(C)(C)C[C@H]6O)O[C@](C)(CO)C[C@H]2O (some centres undefined)	–	–	–	–	0.0012	–	–	0.0011	–	–	–	–	–	–	–	–	–	–	–	–
C[C@H]1C2C(C[C@H]3C4CCC5Cc6nc7c(nc6C[C@]5(C)C4C[C@@H](O)[C@]23C)CC2CCC3C4=CC5O[C@]6(CC[C@](C)(O)CO6)[C@@H](C)C5(O)[C@@]4(C)[C@H](O)CC3[C@@]2(C)C7)OC12CCC(C)(C)O2 (stereo partly drawn) [14-EPI-7'-DEOXYRITTERAZINE B]	–	76	> 300	9.3	–	> 660	> 650	–	> 1000	45	56	> 105	> 55	40	4.1	–	–	–	–	–
C[C@@H]1[C@]2(O[C@H]3C=C4[C@@H]5CC[C@H]6Cc7nc8c(nc7C[C@]6(C)[C@H]5C[C@@H](O)[C@]4(C)[C@]31O)C[C@@H]1CC[C@H]3C4=CC[C@@H]5[C@H](C)[C@@]6(OC[C@]45C(=O)C[C@@H]3[C@@]1(C)C8)OC(C)(C)C[C@H]6O)O[C@](C)(CO)C[C@H]2O [CEPHALOSTATIN 1]	–	0.4	< 0.1	< 0.1	–	0.2	6.3	–	10	0.4	2.5	1.2	0.8	< 0.1	< 0.1	–	–	–	–	–
C[C@@H]1[C@]2(O[C@H]3C=C4[C@@H]5CC[C@H]6Cc7nc8c(nc7C[C@]6(C)[C@H]5C[C@@H](O)[C@]4(C)[C@]31O)C[C@@H]1CC[C@H]3C4=C[C@@H]5O[C@]6(CC[C@](C)(O)CO6)C[C@]5(O)[C@@]4(C)[C@H](O)C[C@@H]3[C@@]1(C)C8)O[C@](C)(CO)C[C@H]2O [CEPHALOSTATIN 7]	–	138	31	11	30	25	271	38	480	37	27	50	16	23	7.9	0.052	0.41	0.0021	–	–
C[C@@H]1C2(OC3C=C4C5CCC6Cc7nc8c(nc7C[C@]6(C)C5C[C@@H](O)[C@]4(C)C31O)CC1CCC3C(CC(=O)[C@]45CO[C@@]6(OC(C)(C)C[C@H]6O)[C@@H](C)C4CCC35)[C@@]1(C)C8)O[C@](C)(CO)C[C@H]2O (some centres undefined) [DIHYDROCEPHALOSTATIN 1]	–	0.59	3.6	< 0.1	–	0.12	1.1	–	2.9	0.17	3.5	2.4	0.8	0.22	< 0.1	–	–	–	–	–
C[C@@H]1[C@@]2(CC[C@](C)(O)CO2)O[C@H]2C=C3[C@@H]4[C@@H](O)C[C@H]5Cc6nc7c(nc6C[C@]5(C)[C@H]4C[C@@H](O)[C@]3(C)[C@]21O)C[C@@H]1CC[C@H]2[C@H]3C[C@@H]4O[C@@]5(CCC(C)(C)O5)C[C@@H]4[C@@]3(C)[C@H](O)C[C@@H]2[C@@]1(C)C7 [RITTERAZINE B]	0.17	–	–	< 0.1	–	0.16	–	0.0021	–	–	–	–	–	–	< 0.1	–	–	–	1	–
C[C@@H]1[C@@]2(CC[C@](C)(O)CO2)O[C@H]2C=C3[C@@H]4[C@@H](O)C[C@H]5Cc6nc7c(nc6C[C@]5(C)[C@H]4C[C@@H](O)[C@]3(C)[C@]21O)C[C@@H]1CC[C@H]2[C@H]3C[C@@H]4O[C@@]5(CCC(C)(C)O5)C[C@@H]4[C@@]3(C)C(=O)C[C@@H]2[C@@]1(C)C7 [RITTERAZINE H]	18	–	–	–	–	–	–	–	–	–	–	–	–	–	–	–	–	–	–	–
C[C@@H]1[C@@]2(CC[C@](C)(O)CO2)O[C@H]2C=C3[C@@H]4[C@@H](O)C[C@H]5Cc6nc7c(nc6C[C@]5(C)[C@H]4C[C@@H](O)[C@]3(C)[C@]21O)C[C@@H]1CC[C@H]2C3=C[C@@H]4O[C@]5(CC[C@@](C)(O)CO5)[C@@H](C)[C@]4(O)[C@@]3(C)[C@H](O)C[C@@H]2[C@@]1(C)C7 [RITTERAZINE J]	14	–	–	–	–	–	–	–	–	–	–	–	–	–	–	–	–	–	–	–
C[C@@H]1[C@@]2(CC[C@](C)(O)CO2)O[C@H]2C=C3[C@H]4CC[C@H]5Cc6nc7c(nc6C[C@]5(C)[C@H]4C[C@@H](O)[C@]3(C)[C@]21O)C[C@@H]1CC[C@H]2C3=C[C@@H]4O[C@]5(CC[C@@](C)(O)CO5)[C@@H](C)[C@]4(O)[C@@]3(C)[C@H](O)C[C@@H]2[C@@]1(C)C7 [RITTERAZINE K]	10	110	190	4.1	28	4.4	288	11	347	20	100	96	4.5	91	1.4	0.047	–	0.0021	–	0.051
C[C@@H]1C2(OC3C=C4C5CCC6Cc7nc8c(nc7C[C@]6(C)C5C[C@@H](O)[C@]4(C)C31O)CC1CCC3C4=CC5OC6(CCC(C)(C)O6)[C@@H](C)C5[C@@]4(C)[C@H](O)CC3[C@@]1(C)C8)O[C@](C)(CO)C[C@H]2O (some centres undefined) [RITTEROSTATIN]	–	7.4	3	0.99	–	1.6	65	–	140	9.7	3.4	14	3.8	1.8	0.1	–	–	–	–	–
